Series [1] relates to CS7BL/6 mice with TNBS-induced acute enteritis. The series can be described thus: 2,4,6-trinitrobenzene sulfonic acid (TNBS)-induced acute enteritis in mice. It is filed as in vivo. The conditions noted are these: for weight loss in model animals / disease activity index (DAI) / damage to colon tissue / length of colon: 1 mg/kg, once daily gavage; for weight loss in model animals: day 0 to day 4, FIG. 2; for disease activity index (DAI): day 0 to day 4, FIG. 3; for damage to colon tissue: dissection on day 5, FIG. 5; for length of colon: dissection on day 5, FIGS. 4 and 5; for efficacy compared with tofacitinib: derivative 1 mg/kg versus positive control tofacitinib. As to the method:
CS7BL/6 mice, male, and female, 6 to 10 weeks old were used. On day-7 of the experiment, the experimental animals were weighed, and the mice were randomly divided into cages according to their body weights. The animals were allowed to adapt to the environment of the animal room. The animal room was maintained at a constant temperature (23° C.±3° C.) and constant humidity (50% relative humidity). Animals are fed standard laboratory food and have free access to drinking water. On day 0, mice were induced for TNBS colitis by intrarectal injection. The dosage of TNBS was 125 mg/kg. The solvent was 30% alcohol. Each mouse received a volume of 100 μl. After the rectal injection, the mice were inverted for 1 minute to prevent leakage of the drug solution.
The solid O-1602 derivative was dissolved in DMSO at a concentration of 2 mg/ml. The above solution was diluted to 0.1 mg/ml using PBS. TNBS enteritis mice received once daily gavage in a volume of 200 μl and were dosed daily at 11:00 a. m. The dosage of the O-1602 derivative was 1 mg/kg. The treatment schedule for the O-1602 derivative was from day 0 to day 4 of the TNBS. The mice in the control group were administered with an equal volume of solvent by gavage. At the same time, the anti-colitis drug JAK inhibitor tofacitinib was used as a positive control. The experimental results of O-1602 derivatives in this model experiment were compared. The O-1602 derivatives were dissolved in the above-mentioned way; the concentration was 1.5 mg/mL; the volume of intragastric administration was 200 μL; and the dosage was 15 mg/kg.
Mice were observed daily for body weight and anal bleeding, and the daily disease activity index (DAI) was calculated and recorded.
The experiment was terminated on day 5 of TNBS. Mice were euthanized by cervical amputation under isoflurane anesthesia. The mice were dissected and the whole colon was obtained. The length of the colon was measured and photographed.

The nature of series [2]: O-1602 release of O-1602 derivatives under different pH conditions (HPLC area percentage). It is filed as physicochemical. As to conditions: for completeness of O-1602 release (in words): partial release with degradation into other impurities. As to the method:
Example 1: Experimental on O-1602 Releases of O-1602 Derivatives Under Different pH Conditions
• Chromatographic column: shimnex CS C18 5 μm, 4.6*250 mm • Mobile phase A: 0.1% phosphoric acid in water; mobile phase B: acetonitrile (see Table 1)
Buffer solution (pH 1.6): 32.4 ml of 0.2 mol/L hydrochloric acid was accurately measured, diluted with water to 200 ml, and shaken well.
Phosphate buffer (pH 5.0): a certain amount of 0.2 mol/L sodium dihydrogen phosphate solution was taken and the pH value was adjusted by using 0.2 mol/L sodium hydroxide solution to 5.0.
Phosphate buffer (pH 6.8): a certain amount of 0.2 mol/L sodium dihydrogen phosphate solution was taken and the pH value was adjusted by using 0.2 mol/L sodium hydroxide solution to 6.8.
Phosphate buffer (pH 7.2): a certain amount of 0.2 mol/L sodium dihydrogen phosphate solution was taken and the pH value was adjusted by using 0.2 mol/L sodium hydroxide solution to 7.2.
Phosphate buffer (pH 8.0): a certain amount of 0.2 mol/L sodium dihydrogen phosphate solution was taken and the pH value was adjusted by using 0.2 mol/L sodium hydroxide solution to 8.0.
About 1 mg of O-1602 derivative was placed in a 2 mL centrifuge tube and dissolved by adding 1 mL of acetonitrile. Then 1 mL of buffer solution was added and shaken well. The obtained solution was incubated at 37° C., and sampled for determination respectively after for 2 hours and 4 hours. (The releases of O-1602 were respectively investigated at pH 1.6, pH 5.0, pH 6.8, pH 7.2, and pH 8.0)
Calculations: the content of O-1602 was calculated by area percentage.

The mark [3] stands for this setting: pH 1.6~8.0, 37° C., 2 hours and 4 hours.

Consider 8 compounds from US20260193222A1, “COMPOUND AND USE THEREOF IN TREATMENT OF TREG-RELATED DISEASES” (BENETHERA (SHAOXING) BIOTECHNOLOGY CO., LTD., priority 2022, published 2026).

Take `C=C(C)[C@@H]1CCC(C)=C[C@H]1c1c(C)cc(OC(=O)NC(C(=O)O)C(C)C)cc1OC(=O)NC(C(=O)O)C(C)C` (stereo partly shown) [Compound 3]: in series [1], the “weight loss in model animals” value is “significantly alleviated”, the “disease activity index (DAI)” value is “significantly alleviated”, the “damage to colon tissue” value is recorded as “reduced” and the length of colon entry is reported as “increased”. Moreover, the “efficacy compared with tofacitinib” value in series [1] was “superior efficacy”.
With `C=C(C)[C@@H]1CCC(C)=C[C@H]1c1c(C)cc(OC(=O)C(N)C(C)C)cc1OC(=O)C(N)C(C)C` (stereo partly shown) [Compound 7], the Principal component % in series [2] (0 h) worked out at 87.691%; in series [2] (Buffer (pH 1.6), 37° C., 2 h), 79.094%; in series [2] (Buffer (pH 1.6), 37° C., 4 h), 81.424%; in series [2] (Buffer (pH 5.0), 37° C., 2 h), 26.693%; in series [2] (Buffer (pH 5.0), 37° C., 4 h), 8.307%; in series [2] (Buffer (pH 6.8), 37° C., 2 h) it was 3.401%. Besides, in series [2] (Buffer (pH 6.8), 37° C., 4 h), the Principal component % is given as 1.551%. The O-1602% in series [2] (Buffer (pH 5.0), 37° C., 2 h) came to 1.088%; in series [2] (Buffer (pH 5.0), 37° C., 4 h), 3.800%; in series [2] (Buffer (pH 6.8), 37° C., 2 h), 1.972%; in series [2] (Buffer (pH 6.8), 37° C., 4 h), 3.518%; in series [2] (Buffer (pH 7.2), 37° C., 2 h), 29.354%; in series [2] (Buffer (pH 7.2), 37° C., 4 h), 19.343%. Moreover, the O-1602% in series [2] (Buffer (pH 8.0), 37° C., 2 h) was 11.933%; in series [2] (Buffer (pH 8.0), 37° C., 4 h), 43.976%. Also, the “release amount of O-1602 (in words)” value in series [2] (setting [3]) is “relatively high”. The “completeness of O-1602 release (in words)” value in series [2] (pH 1.6~8.0, 37° C.) is listed as “only partially released”. In addition, the “weight loss in model animals” value in series [1] is “significantly alleviated”. Also, the “disease activity index (DAI)” value in series [1] is “significantly alleviated”. In addition, the “damage to colon tissue” value in series [1] is “reduced”. The length of colon entry in series [1] is listed as “increased”. The “efficacy compared with tofacitinib” value in series [1] is reported as “superior efficacy”.
On to `C=C(C)[C@@H]1CCC(C)=C[C@H]1c1c(C)cc(OC(=O)NCCCCN)cc1O` [Compound 6], for which the “release amount of O-1602 (in words)” value in series [2] (setting [3]) is listed as “small amount”. In addition, in series [1], the “weight loss in model animals” value is recorded as “significantly alleviated”, the “disease activity index (DAI)” value is “significantly alleviated”, the “damage to colon tissue” value is recorded as “reduced” and the length of colon entry was “increased”. The “efficacy compared with tofacitinib” value in series [1] is on record as “superior efficacy”.
On to `C=C(C)[C@@H]1CCC(C)=C[C@H]1c1c(C)cc(OC(=O)NCCN2CCN(C)CC2)cc1OC(=O)NCCN1CCN(C)CC1` [Compound 11], for which, in series [2] (setting [3]), the “release amount of O-1602 (in words)” value was “small amount”. In series [1], the “disease activity index (DAI)” value is “significantly alleviated”, the “damage to colon tissue” value was “reduced”, the length of colon result is “increased” and the “efficacy compared with tofacitinib” value is reported as “superior efficacy”.
For `C=C(C)[C@@H]1CCC(C)=C[C@H]1c1c(C)cc(OC(=O)N(C)C)cc1OC(=O)N(C)C` [Compound 8], in series [2] (setting [3]), the “release amount of O-1602 (in words)” value is “no O-1602 was released” and the “stability (in words)” value is recorded as “good stability”.
Take `C=C(C)[C@@H]1CCC(C)=C[C@H]1c1c(C)cc(OC(C)=O)cc1OC(C)=O` [Compound 2]: the “release amount of O-1602 (in words)” value in series [2] (setting [3]) is “no O-1602 was released”.
Turning to `C=C(C)[C@@H]1CCC(C)=C[C@H]1c1c(C)cc(OC(=O)OCCN(CC)CC)cc1OC(=O)OCCN(CC)CC` [Compound 1], the Principal component % in series [2] (0 h) stood at 97.185%; in series [2] (Buffer (pH 1.6), 37° C., 2 h) it was 96.906%; in series [2] (Buffer (pH 1.6), 37° C., 4 h) it was 94.115%; in series [2] (Buffer (pH 5.0), 37° C., 2 h), 78.030%; in series [2] (Buffer (pH 5.0), 37° C., 4 h), 24.651%. The O-1602% is 0.457% in series [2] (Buffer (pH 5.0), 37° C., 4 h); 9.801% in series [2] (Buffer (pH 6.8), 37° C., 2 h); 20.813% in series [2] (Buffer (pH 6.8), 37° C., 4 h); 6.354% in series [2] (Buffer (pH 7.2), 37° C., 2 h); 20.172% in series [2] (Buffer (pH 7.2), 37° C., 4 h); 11.455% in series [2] (Buffer (pH 8.0), 37° C., 2 h). Further, the O-1602% in series [2] (Buffer (pH 8.0), 37° C., 4 h) worked out at 33.963%. Also, the “release amount of O-1602 (in words)” value in series [2] (setting [3]) is “relatively high”. For the same compound, in series [2] (pH 1.6~8.0, 37° C.), the “completeness of O-1602 release (in words)” value is given as “only partially released”. Besides, in series [1], the “weight loss in model animals” value is “significantly alleviated”.
In the case of `C=C(C)[C@@H]1CCC(C)=C[C@H]1c1c(C)cc(OC(=O)CN(C)C)cc1O` [Compound 13], the “O-1602 release (in words)” value in series [2] (acidic buffer solution (pH 1.6), 37° C., 4 hours) is reported as “trace amount”. For the same compound, the “release amount of O-1602 (in words)” value in series [2] (setting [3]) was “small amount”.
